The results in this text go back to patent publication US9062066B2, “Anti-inflammatory compound having inhibitory activity against multiple tyrosine kinases and pharmaceutical composition containing same” (KOREA INSTITUTE OF SCIENCE AND TECHNOLOGY, priority 2010, dated 2015).

Assay [1] deals with TNF-α synthesis in J744A.1 macrophages. The experiment in a line: inhibition of TNF-α synthesis in LPS-activated macrophages (ELISA). The settings on record: Macrophage; 10 μM compound, 100 ng/ml LPS, 6 hours; read-out: Inhibition (%) of TNF-α synthesis. Format: cell-based.
The next assay addresses DDR2 tyrosine kinase (Homo sapiens (Human), UniProt Q16832). The experiment in a line: in vitro DDR2 tyrosine kinase inhibition (GST-fused kinase domain). Format: biochemical. The settings on record: 1 uM compound; read-out: % inhibition against DDR2.
Another assay addresses DDR1 tyrosine kinase (Homo sapiens (Human), UniProt Q08345). The experiment in a line: in vitro DDR1 tyrosine kinase inhibition (GST-fused kinase domain). Particulars: 1 uM compound; read-out: % inhibition against DDR1. Format: biochemical.
For assay [2], the system named is NO synthesis in J744A.1 macrophage. The assay can be described thus: inhibition of nitric oxide (NO) synthesis in LPS-activated macrophages (Griess reagent). Format: cell-based. Particulars: 10 μM compound, LPS, 24 hours, read-out: Inhibition (%) of NO synthesis.
The target of the next assay is Hck tyrosine kinase (Homo sapiens (Human), UniProt P08631). The assay can be described thus: in vitro Hck tyrosine kinase inhibition. Format: biochemical. Particulars: 1 uM compound; read-out: % inhibition against Hck.
The target in a further assay is c-Src tyrosine kinase (Homo sapiens (Human), UniProt P12931). The experiment in a line: in vitro c-Src tyrosine kinase inhibition (32P-ATP, poly(D4Y)n substrate). It is filed as biochemical. The settings on record: 1 uM compound; read-out: % inhibition against c-Src.
The subject of assay [3] is α-smooth muscle actin protein expression in skin fibroblast cells. The experiment in a line: inhibition of α-smooth muscle actin expression in fibroblast activated by type I collagen and TGF-β1 (western blotting). Format: cell-based, Balb/C mouse. Particulars: Mus musculus, 0.5 uM compound, 10 ng/ml TGF-β1, 48 hours, type I collagen, read-out: Inhibition (%) of α-smooth muscle actin increase. An excerpt: When fibroblast, […] alpha smooth muscle cells are converted to myofibroblast by activation, one of characteristic features is that α-smooth muscle actin protein expression is increased. Also myoblast cells with the increased α-smooth muscle actin expression have a character of an increased migration. These phenomena appear together with the activation of inflammatory cells and the activated myoblast-type cells are known to contribute directly to the pathology of inflammatory diseases. […] In this experiment, the expression level of alpha smooth muscle actin can be quantificated by measuring the density of α-smooth muscle actin protein band with densitometer after developing the X-ray film of chemiluminescence signal in western blotting experiment.

The target in the next assay is Fgr tyrosine kinase (Homo sapiens (Human), UniProt P09769). The assay can be described thus: in vitro Fgr tyrosine kinase inhibition. It is filed as biochemical. The settings on record: 1 uM compound; read-out: % inhibition against Fgr.
A further assay concerns mouse skin fibroblast. The experiment in a line: inhibition of migration of activated fibroblast (scratch wound). It is filed as cell-based. The settings on record: 0.5 uM compound, 10 ng/ml TGF-β1, 24 hours, read-out: Inhibition (%) of migration of activated fibroblast. The method, then:
The straight line of regular width was made using a micro pipette tip for a scratch wound on the mono-layer culture, and then the culture was exchanged to DMEM medium and incubated with 10 ng/ml of TGF-β1 in cell culture incubator of 37° C. for 24 hours. The cultured cells were fixed using formalin and stained with crystal violet. Photo-pictures were taken at 100× magnification in five location selected randomly in the scratched wound site of each stained culture dish and then the number of the cells moved into the scratched wound area was counted and averaged.

For a further assay, the target named is Lyn tyrosine kinase (Homo sapiens (Human), UniProt P07948). The experiment in a line: in vitro Lyn tyrosine kinase inhibition. Format: biochemical. Particulars: 1 uM compound; read-out: % inhibition against Lyn.
Assay [4] concerns oxazolone-induced skin inflammation of Balb/C mouse ears. The experiment in a line: mouse skin inflammatory model induced by oxazolone (ear thickness). It is filed as in vivo. The settings on record: 20 ul of 0.1% compound topical on ear, 36 hours after oxazolone. The method, then: The compounds of the present invention were evaluated for their effective anti-inflammatory activity using a skin inflammatory animal model of 8 weeks old Balb/C mouse ears induced by oxazolone. […] After 4 days, the thickness of ear was measured using a caliper for the thickness value of ear before the induction of inflammation. […] After 36 hours, the thickness of ear was measured for the increased thickness induced by inflammation. […] The average value was obtained in each group (n=4).

Hck tyrosine kinase, sequence (P08631 whole entry): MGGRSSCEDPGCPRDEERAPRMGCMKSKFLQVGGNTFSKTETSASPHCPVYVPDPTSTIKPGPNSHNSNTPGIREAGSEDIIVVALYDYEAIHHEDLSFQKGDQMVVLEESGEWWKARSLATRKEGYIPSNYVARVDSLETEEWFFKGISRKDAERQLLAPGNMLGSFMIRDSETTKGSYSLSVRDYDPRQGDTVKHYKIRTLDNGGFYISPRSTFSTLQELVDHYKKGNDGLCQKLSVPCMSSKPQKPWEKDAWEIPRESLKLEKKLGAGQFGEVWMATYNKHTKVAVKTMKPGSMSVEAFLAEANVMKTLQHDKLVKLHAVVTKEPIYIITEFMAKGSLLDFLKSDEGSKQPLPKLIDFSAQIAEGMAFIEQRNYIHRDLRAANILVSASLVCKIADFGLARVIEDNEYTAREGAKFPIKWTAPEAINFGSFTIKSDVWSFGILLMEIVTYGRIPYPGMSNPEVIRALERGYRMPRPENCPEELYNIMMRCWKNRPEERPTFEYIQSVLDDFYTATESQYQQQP
DDR1 tyrosine kinase, sequence (Q08345 610-905): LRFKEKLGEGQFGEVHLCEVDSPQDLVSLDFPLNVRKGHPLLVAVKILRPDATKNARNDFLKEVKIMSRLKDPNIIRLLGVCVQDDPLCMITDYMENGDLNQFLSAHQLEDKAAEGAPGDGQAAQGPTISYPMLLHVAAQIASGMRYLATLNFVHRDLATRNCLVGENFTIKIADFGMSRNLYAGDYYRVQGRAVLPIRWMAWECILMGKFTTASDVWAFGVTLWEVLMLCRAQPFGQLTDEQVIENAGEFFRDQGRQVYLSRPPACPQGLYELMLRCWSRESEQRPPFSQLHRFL
DDR2 tyrosine kinase, sequence (Q16832 563-849): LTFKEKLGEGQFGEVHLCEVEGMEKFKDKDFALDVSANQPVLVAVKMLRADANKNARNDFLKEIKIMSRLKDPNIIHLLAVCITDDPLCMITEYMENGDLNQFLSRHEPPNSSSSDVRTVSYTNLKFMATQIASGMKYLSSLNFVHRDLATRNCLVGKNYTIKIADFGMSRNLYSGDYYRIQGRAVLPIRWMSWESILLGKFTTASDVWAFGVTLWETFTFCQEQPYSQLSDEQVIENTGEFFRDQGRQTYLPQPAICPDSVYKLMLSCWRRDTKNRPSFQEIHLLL
c-Src tyrosine kinase, sequence (P12931 whole entry, looked up): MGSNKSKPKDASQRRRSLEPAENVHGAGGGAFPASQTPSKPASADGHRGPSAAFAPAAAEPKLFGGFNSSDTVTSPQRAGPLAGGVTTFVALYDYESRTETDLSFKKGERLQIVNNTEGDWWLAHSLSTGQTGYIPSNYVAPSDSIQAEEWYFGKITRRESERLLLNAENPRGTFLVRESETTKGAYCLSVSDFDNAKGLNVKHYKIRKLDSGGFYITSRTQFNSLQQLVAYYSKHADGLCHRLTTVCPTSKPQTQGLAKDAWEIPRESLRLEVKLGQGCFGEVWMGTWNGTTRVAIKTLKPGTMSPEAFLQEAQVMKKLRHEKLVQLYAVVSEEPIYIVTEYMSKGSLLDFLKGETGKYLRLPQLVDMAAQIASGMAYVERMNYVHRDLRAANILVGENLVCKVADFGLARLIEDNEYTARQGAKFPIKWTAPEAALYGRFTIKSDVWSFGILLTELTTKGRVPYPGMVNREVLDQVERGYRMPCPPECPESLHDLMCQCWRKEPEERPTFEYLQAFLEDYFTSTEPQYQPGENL
Fgr tyrosine kinase, sequence (P09769 whole entry): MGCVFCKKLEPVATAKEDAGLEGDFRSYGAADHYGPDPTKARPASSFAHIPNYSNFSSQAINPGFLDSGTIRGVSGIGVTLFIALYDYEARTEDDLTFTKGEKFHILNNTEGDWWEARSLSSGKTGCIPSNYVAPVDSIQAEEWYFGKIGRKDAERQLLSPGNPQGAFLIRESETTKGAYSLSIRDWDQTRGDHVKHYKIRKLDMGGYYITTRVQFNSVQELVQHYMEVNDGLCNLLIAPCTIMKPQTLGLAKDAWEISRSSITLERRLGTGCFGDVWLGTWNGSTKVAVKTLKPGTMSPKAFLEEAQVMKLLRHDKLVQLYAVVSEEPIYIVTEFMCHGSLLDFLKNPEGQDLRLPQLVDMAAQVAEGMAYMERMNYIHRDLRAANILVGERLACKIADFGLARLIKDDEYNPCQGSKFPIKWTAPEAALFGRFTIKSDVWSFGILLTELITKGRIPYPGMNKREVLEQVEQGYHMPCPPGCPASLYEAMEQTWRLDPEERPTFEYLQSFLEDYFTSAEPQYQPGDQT
Lyn tyrosine kinase, sequence (P07948 whole entry): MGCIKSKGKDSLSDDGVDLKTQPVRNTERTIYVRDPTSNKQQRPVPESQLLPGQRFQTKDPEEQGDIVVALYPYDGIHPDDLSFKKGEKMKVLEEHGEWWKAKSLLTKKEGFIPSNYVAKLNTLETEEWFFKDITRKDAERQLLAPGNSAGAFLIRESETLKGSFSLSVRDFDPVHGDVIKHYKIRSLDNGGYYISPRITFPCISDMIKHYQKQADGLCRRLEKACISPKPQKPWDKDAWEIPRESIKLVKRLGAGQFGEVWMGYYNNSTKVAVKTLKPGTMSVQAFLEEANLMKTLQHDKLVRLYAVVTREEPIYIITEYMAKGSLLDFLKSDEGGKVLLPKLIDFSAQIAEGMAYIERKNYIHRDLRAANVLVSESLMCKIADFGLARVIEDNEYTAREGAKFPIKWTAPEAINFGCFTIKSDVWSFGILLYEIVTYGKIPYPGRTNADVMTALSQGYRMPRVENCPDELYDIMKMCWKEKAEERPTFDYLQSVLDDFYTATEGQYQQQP

On to `CCN(CC)Cc1ccc(-c2cc3ncnc(Nc4cccc(O)c4)c3s2)cc1` [LCB 03-0037], for which the inhibition at 10 µM in assay [1] was 73%; in [2] it was 93%. The inhibition at 1 µM is above 80% on DDR2 tyrosine kinase; above 80% on DDR1 tyrosine kinase; above 80% on Hck tyrosine kinase; above 80% at c-Src tyrosine kinase; above 70% on Fgr tyrosine kinase; above 80% at Lyn tyrosine kinase. The inhibition at 0.5 µM in assay [3] came to 55%; in the assay on mouse skin fibroblast, 37%. For the same molecule, in assay [4], the “Inhibition (%) of increase of ear thickness” value was determined as 33%.
Regarding `Oc1cccc(Nc2ncnc3cc(-c4ccc(CNC5CC5)cc4)sc23)c1` [LCB 03-0040], the inhibition at 10 µM in assay [1] worked out at 84%; in assay [2] it was 93%. Moreover, the inhibition at 1 µM at DDR2 tyrosine kinase, at DDR1 tyrosine kinase, on Hck tyrosine kinase, on c-Src tyrosine kinase, at Fgr tyrosine kinase and on Lyn tyrosine kinase was above 80% throughout. Moreover, the inhibition at 0.5 µM in assay [3] is 55%; in the assay with mouse skin fibroblast, 43%. For the same molecule, the “Inhibition (%) of increase of ear thickness” value in [4] amounted to 31%.
As to `CC(C)CNCc1ccc(-c2cc3ncnc(Nc4cccc(O)c4)c3s2)cc1` [LCB 03-0041], the inhibition at 10 µM in assay [1] was determined as 87%; in [2], 91%. In addition, the inhibition at 1 µM at DDR2 tyrosine kinase, on DDR1 tyrosine kinase, at Hck tyrosine kinase, on c-Src tyrosine kinase, on Fgr tyrosine kinase and at Lyn tyrosine kinase was above 80% each time. Besides, the inhibition at 0.5 µM in assay [3] was 66%; in the assay on mouse skin fibroblast it was 39%. Besides, the “Inhibition (%) of increase of ear thickness” value in assay [4] was found to be 29%.
For `CCNCc1ccc(-c2cc3ncnc(Nc4cccc(O)c4)c3s2)cc1` [LCB 03-0042], the inhibition at 10 µM came to 98% in assay [1] and 91% in [2]. Also, the inhibition at 1 µM at DDR2 tyrosine kinase, on DDR1 tyrosine kinase, at Hck tyrosine kinase, at c-Src tyrosine kinase, on Fgr tyrosine kinase and at Lyn tyrosine kinase was above 80% each time. The inhibition at 0.5 µM in [3] stood at 69%; in the assay with mouse skin fibroblast, 46%. Further, the “Inhibition (%) of increase of ear thickness” value in assay [4] is 33%.
As to `C[C@@H]1CCC[C@H](C)N1Cc1ccc(-c2cc3ncnc(Nc4cccc(O)c4)c3s2)cc1.Cl` [LCB 03-0059, 3-(6-(4-(((2R,6S)-2,6-dimethylpiperidin-1-yl)methyl)phenyl)thieno[3,2-d]pyrimidin-4-ylamino)phenol], the inhibition at 10 µM was 74% in [1] and 88% in assay [2]. Moreover, the inhibition at 1 µM on DDR2 tyrosine kinase is above 80%; at DDR1 tyrosine kinase, above 80%; on Hck tyrosine kinase, above 50%; at c-Src tyrosine kinase it was above 50%; at Fgr tyrosine kinase, above 50%; on Lyn tyrosine kinase it was above 50%. The results for the inhibition at 0.5 µM (in assay [3]; in the assay on mouse skin fibroblast) were 56% and 29%, respectively. In addition, in [4], the “Inhibition (%) of increase of ear thickness” value worked out at 59%.
Regarding `Cl.Oc1cccc(Nc2ncnc3cc(-c4cccc(CN5CCCCC5)c4)sc23)c1` [LCB 03-0060, 3-(6-(3-(piperidin-1-ylmethyl)phenyl)thieno[3,2-d]pyrimidin-4-ylamino)phenol], the inhibition at 10 µM worked out at 78% in [1] and 93% in assay [2]. The inhibition at 1 µM on DDR2 tyrosine kinase, at DDR1 tyrosine kinase, at Hck tyrosine kinase, at c-Src tyrosine kinase, at Fgr tyrosine kinase and at Lyn tyrosine kinase was above 80% each time. The inhibition at 0.5 µM in assay [3] is 65%; with mouse skin fibroblast, 42%. For the same molecule, in assay [4], the “Inhibition (%) of increase of ear thickness” value came out at 66%.
`CN1CCN(Cc2cccc(-c3cc4ncnc(Nc5cccc(O)c5)c4s3)c2)CC1.Cl` [LCB 03-0061, 3-(6-(3-((4-methylpiperazin-1-yl)methyl)phenyl)thieno[3,2-d]pyrimidin-4-ylamino)phenol]: the inhibition at 10 µM in [1] was 91%; in assay [2] it was 92%. In addition, the inhibition at 1 µM at DDR2 tyrosine kinase, on DDR1 tyrosine kinase, at Hck tyrosine kinase, on c-Src tyrosine kinase, on Fgr tyrosine kinase and on Lyn tyrosine kinase was above 80% throughout. The inhibition at 0.5 µM in [3] is 68%; in the assay on mouse skin fibroblast, 44%. Also, the “Inhibition (%) of increase of ear thickness” value in assay [4] is recorded as 55%.
On to `Cl.Oc1cccc(Nc2ncnc3cc(-c4cccc(CN5CCCC5)c4)sc23)c1` [LCB 03-0062, 3-(6-(3-(pyrrolidin-1-ylmethyl)phenyl)thieno[3,2-d]pyrimidin-4-ylamino)phenol], for which the figures for the inhibition at 10 µM in assay [1] and in assay [2] were 82% and 93%, respectively. The inhibition at 1 µM at DDR2 tyrosine kinase, on DDR1 tyrosine kinase, at Hck tyrosine kinase, at c-Src tyrosine kinase, at Fgr tyrosine kinase and at Lyn tyrosine kinase was above 80% each time. The inhibition at 0.5 µM in assay [3] worked out at 64%; with mouse skin fibroblast, 41%. The “Inhibition (%) of increase of ear thickness” value in assay [4] was 57%.
Take `CCN(CC)Cc1cccc(-c2cc3ncnc(Nc4cccc(O)c4)c3s2)c1.Cl` [LCB 03-0063, 3-(6-(3-((diethylamino)methyl)phenyl)thieno[3,2-d]pyrimidin-4-ylamino)phenol]: the inhibition at 10 µM turned out to be 85% in assay [1] and 89% in [2]. For the same molecule, the inhibition at 1 µM at DDR2 tyrosine kinase, on DDR1 tyrosine kinase, at Hck tyrosine kinase, on c-Src tyrosine kinase, on Fgr tyrosine kinase and on Lyn tyrosine kinase was above 80% each time. Moreover, the results for the inhibition at 0.5 µM (in [3]; in the assay with mouse skin fibroblast) were 61% and 36%, respectively. Further, the “Inhibition (%) of increase of ear thickness” value in [4] turned out to be 51%.
On to `Cl.Oc1cccc(Nc2ncnc3cc(-c4cccc(CN5CCNCC5)c4)sc23)c1` [LCB 03-0064, 3-(6-(3-(piperazin-1-ylmethyl)phenyl)thieno[3,2-d]pyrimidin-4-ylamino)phenol], for which the values for the inhibition at 10 µM in assay [1] and in [2] were 73% and 79%, respectively. The inhibition at 1 µM on DDR2 tyrosine kinase, on DDR1 tyrosine kinase, on Hck tyrosine kinase, on c-Src tyrosine kinase, on Fgr tyrosine kinase and at Lyn tyrosine kinase was above 80% in each case. Besides, the values for the inhibition at 0.5 µM (in assay [3]; in the assay on mouse skin fibroblast) were 66% and 41%, respectively. In assay [4], the “Inhibition (%) of increase of ear thickness” value was 63%.
Consider `CCNCc1cccc(-c2cc3ncnc(Nc4cccc(O)c4)c3s2)c1.Cl` [LCB 03-0065, 3-(6-(3-((ethylamino)methyl)phenyl)thieno[3,2-d]pyrimidin-4-ylamino)phenol], for which the inhibition at 10 µM in assay [1] was determined as 79%; in assay [2], 84%. Also, the inhibition at 1 µM on DDR2 tyrosine kinase was above 70%; on DDR1 tyrosine kinase, above 70%; on Hck tyrosine kinase, above 80%; at c-Src tyrosine kinase it was above 80%; on Fgr tyrosine kinase, above 80%; on Lyn tyrosine kinase, above 80%. The values for the inhibition at 0.5 µM (in [3]; with mouse skin fibroblast) were 58% and 35%, respectively. The “Inhibition (%) of increase of ear thickness” value in assay [4] amounted to 52%.
